Measurements published in the supplement of paper PMC10307832.

Assays:
Test in all cases: relative viability (nuclei count vs DMSO), 5 days (fraction); higher = more cells survive
[1] = compound: C1CC2=C(C1)C=C(C=C2)OC3=NC(=C4C(=N3)N(C=N4)CC5=CC=C(C=C5)C6=CC=CC=C6)N[C@@H](CC7=CC=CC=C7)CO [QS11] + N=C(N)NC(=N)NCCc1ccccc1 [Phenformin] (partner 250 µM)
Procedure, shortened: (§1)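 The day after seeding in 1536-well plates, lung cancer cell lines were treated by pin tool with a single drug, or with a fixed anchor-drug dose together with five library-drug doses (not always all listed) in √10 steps. After 5 days, a combined fix-and-stain solution (final 0.05% Triton X-100, 1% formaldehyde, 1 ug/ml Hoechst) was added. Nuclei counted on 4× images gave relative viability as treated counts over vehicle counts, reported as the median of duplicate plates.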

[2] = compound: C1CC2=C(C1)C=C(C=C2)OC3=NC(=C4C(=N3)N(C=N4)CC5=CC=C(C=C5)C6=CC=CC=C6)N[C@@H](CC7=CC=CC=C7)CO [QS11] + Nc1ncn([C@H]2C[C@H](O)[C@@H](CO)O2)c(=O)n1 [Decitabine] (partner 2 µM)
Procedure, shortened: as §1

[3] = compound: CC1=C(C=C(C=C1)NC(=O)C2=CC(=CC=C2)C(C)(C)C#N)NC3=CC4=C(C=C3)N=CN(C4=O)C [AZ628] + Cc1nc(NC(=O)N2CCC[C@H]2C(N)=O)sc1-c1ccnc(C(C)(C)C(F)(F)F)c1 [Alpelisib] (partner 2 µM)
Procedure, shortened: as §1

[4] = compound: C[As](C)SC[C@H](NC(=O)CC[C@H](N)C(=O)O)C(=O)NCC(=O)O [Darinaparsin] + CS(=O)(=O)CCNCc1ccc(-c2ccc3ncnc(Nc4ccc(OCc5cccc(F)c5)c(Cl)c4)c3c2)o1 [Lapatinib] (partner 2 µM)
Procedure, shortened: as §1

| Cell Line | relative viability ([1]; first compound 0.08 µM) | relative viability ([1]; first compound 0.253 µM) | relative viability ([1]; first compound 0.8 µM) | relative viability ([1]; first compound 2.53 µM) | relative viability ([1]; first compound 8 µM) | relative viability ([2]; first compound 0.08 µM) | relative viability ([2]; first compound 0.253 µM) | relative viability ([2]; first compound 0.8 µM) | relative viability ([2]; first compound 2.53 µM) | relative viability ([2]; first compound 8 µM) | relative viability ([3]; first compound 0.08 µM) | relative viability ([3]; first compound 0.253 µM) | relative viability ([3]; first compound 0.8 µM) | relative viability ([3]; first compound 2.53 µM) | relative viability ([3]; first compound 8 µM) | relative viability ([4]; first compound 0.08 µM) | relative viability ([4]; first compound 0.8 µM) | relative viability ([4]; first compound 2.53 µM) | relative viability ([4]; first compound 8 µM) |
| --- | --- | --- | --- | --- | --- | --- | --- | --- | --- | --- | --- | --- | --- | --- | --- | --- | --- | --- | --- |
| A549 | 0.115 | 0.256 | 0.154 | 0.125 | 0.197 | 0.224 | 0.215 | 0.271 | 0.214 | 0.212 | 0.688 | 0.677 | 0.5 | 0.565 | 0.258 | 1.45 | 1.05 | 1.01 | 1.06 |
| NCI-H358 | 0.297 | 0.378 | 0.412 | 0.5 | 0.507 | 0.213 | 0.213 | 0.227 | 0.266 | 0.207 | 0.745 | 0.639 | 0.668 | 0.571 | 0.389 | 0.463 | 0.412 | 0.422 | 0.52 |
| NCI-H1666 | 0.556 | 0.519 | 0.55 | 0.479 | 0.398 | 0.746 | 0.748 | 0.653 | 0.699 | 0.485 | 0.79 | 0.765 | 0.522 | 0.534 | 0.425 | 0.763 | 0.587 | 0.59 | 0.701 |
| LOU-NH91 | 0.685 | 0.62 | 0.657 | 0.67 | 0.663 | 0.807 | 0.8 | 0.776 | 0.852 | 0.821 | 0.714 | 0.747 | 0.691 | 0.687 | 0.577 | 0.848 | 0.647 | 0.705 | 0.795 |
| RERF-LC-KJ | 0.407 | 0.41 | 0.438 | 0.378 | 0.315 | 0.765 | 0.691 | 0.619 | 0.692 | 0.524 | 0.721 | 0.912 | 0.749 | 0.719 | 0.597 | 1.11 | 0.849 | 0.762 | 1.03 |
| NCI-H2085 | 0.707 | 0.681 | 0.671 | 0.726 | 0.844 | 0.478 | 0.549 | 0.49 | 0.56 | 0.557 | 1.06 | 0.965 | 1.03 | 0.856 | 0.714 | 0.809 | 0.697 | 0.776 | 0.916 |
| NCI-H1793 | 0.304 | 0.386 | 0.355 | 0.345 | 0.376 | 0.474 | 0.424 | 0.51 | 0.477 | 0.453 | 0.921 | 0.75 | 0.684 | 0.564 | 0.593 | 0.675 | 0.632 | 0.902 | 0.916 |
| HCC-366 | 0.607 | 0.613 |  | 0.589 | 0.504 | 0.346 | 0.329 |  | 0.369 | 0.192 | 0.356 | 0.317 | 0.154 | 0.26 | 0.12 | 1.63 | 0.95 | 1.03 | 1.67 |
